Laboratory results published in ChEMBL document CHEMBL1130764, “Synthesis of a potent wide-spectrum serotonin-, norepinephrine-, dopamine-reuptake inhibitor (SNDRI) and a species-selective dopamine-reuptake inhibitor based on the gamma-amino alcohol functional group” (Bioorg Med Chem Lett, 1998).

Assays:
[1] = biological target: Norepinephrine transporter (Rattus norvegicus, UniProt Q9WTR4); assay type: subcellular, Hippocampus
[2] = biological target: Sodium-dependent dopamine transporter (Rattus norvegicus, UniProt P23977); test: Inhibition of [3H]- DA reuptake into rat striatal synaptosomes; assay type: subcellular, Brain
[3] = biological target: T1, Sodium-dependent dopamine transporter (Homo sapiens, UniProt Q01959); test: Equilibrium dissociation constant (KD) for Competitive binding between [3H]WIN-35428 and the compound at human transporter-hDAT
Glutamate NMDA receptor [4] = test: Inhibition of N-methyl-D-aspartate (NMDA) Receptor, by the displacement of [3H]MK-801 in rat brain membranes; assay type: cell membranes
[5] = biological target: Sodium-dependent noradrenaline transporter (Homo sapiens, UniProt P23975)
Rattus norvegicus = organism: Rattus norvegicus; test: Compound was evaluated for Dopamine reuptake inhibition in rat striatal synaptosomes; assay type: functional, Brain
Glutamate NMDA receptor [6] = test: Compound was evaluated for noncompetitive inhibition of N-methyl-D-aspartate (NMDA) Receptor by the displacement of [3H]MK-801 in rat brain membranes; assay type: cell membranes
[7] = biological target: T1, Sodium-dependent dopamine transporter; test: Equilibrium dissociation constant (KD) for Competitive binding between [3H]WIN-35428 and the compound at human transporter -hDAT

Chain of Sodium-dependent noradrenaline transporter (P23975 whole entry): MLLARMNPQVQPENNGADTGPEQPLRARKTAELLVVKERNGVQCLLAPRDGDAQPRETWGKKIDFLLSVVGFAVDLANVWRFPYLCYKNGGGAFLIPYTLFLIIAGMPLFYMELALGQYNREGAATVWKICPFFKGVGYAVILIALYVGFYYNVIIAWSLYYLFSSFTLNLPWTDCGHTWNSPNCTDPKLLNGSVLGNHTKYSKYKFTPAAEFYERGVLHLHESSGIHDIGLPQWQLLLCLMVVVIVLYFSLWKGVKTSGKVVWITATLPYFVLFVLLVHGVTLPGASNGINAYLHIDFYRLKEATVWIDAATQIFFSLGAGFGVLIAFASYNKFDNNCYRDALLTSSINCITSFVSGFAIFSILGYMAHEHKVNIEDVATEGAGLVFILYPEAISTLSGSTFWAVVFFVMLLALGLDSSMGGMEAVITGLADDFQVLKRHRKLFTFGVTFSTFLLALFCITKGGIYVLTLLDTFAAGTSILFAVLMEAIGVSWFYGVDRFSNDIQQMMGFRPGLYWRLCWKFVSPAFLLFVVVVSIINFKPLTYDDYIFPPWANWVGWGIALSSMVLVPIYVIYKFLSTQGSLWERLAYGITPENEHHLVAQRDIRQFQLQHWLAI
Chain of Sodium-dependent dopamine transporter (Rattus norvegicus, UniProt P23977) (P23977 whole entry): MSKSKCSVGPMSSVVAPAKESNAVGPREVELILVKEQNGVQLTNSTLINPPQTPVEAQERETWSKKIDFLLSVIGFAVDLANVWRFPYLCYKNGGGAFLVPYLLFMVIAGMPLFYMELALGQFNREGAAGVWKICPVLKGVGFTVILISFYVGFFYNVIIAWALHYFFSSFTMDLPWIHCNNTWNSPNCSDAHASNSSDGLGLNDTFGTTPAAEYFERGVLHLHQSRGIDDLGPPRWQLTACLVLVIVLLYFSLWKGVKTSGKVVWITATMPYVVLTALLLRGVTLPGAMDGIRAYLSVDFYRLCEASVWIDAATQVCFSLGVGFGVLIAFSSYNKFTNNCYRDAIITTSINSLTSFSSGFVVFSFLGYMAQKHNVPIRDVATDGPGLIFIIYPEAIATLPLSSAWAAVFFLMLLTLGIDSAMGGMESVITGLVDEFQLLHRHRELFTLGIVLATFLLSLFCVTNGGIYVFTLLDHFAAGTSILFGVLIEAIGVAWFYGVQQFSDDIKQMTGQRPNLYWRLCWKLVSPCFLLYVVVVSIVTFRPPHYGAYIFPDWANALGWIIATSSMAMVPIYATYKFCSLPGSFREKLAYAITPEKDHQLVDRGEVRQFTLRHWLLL
T1 sequence (Q01959 whole entry): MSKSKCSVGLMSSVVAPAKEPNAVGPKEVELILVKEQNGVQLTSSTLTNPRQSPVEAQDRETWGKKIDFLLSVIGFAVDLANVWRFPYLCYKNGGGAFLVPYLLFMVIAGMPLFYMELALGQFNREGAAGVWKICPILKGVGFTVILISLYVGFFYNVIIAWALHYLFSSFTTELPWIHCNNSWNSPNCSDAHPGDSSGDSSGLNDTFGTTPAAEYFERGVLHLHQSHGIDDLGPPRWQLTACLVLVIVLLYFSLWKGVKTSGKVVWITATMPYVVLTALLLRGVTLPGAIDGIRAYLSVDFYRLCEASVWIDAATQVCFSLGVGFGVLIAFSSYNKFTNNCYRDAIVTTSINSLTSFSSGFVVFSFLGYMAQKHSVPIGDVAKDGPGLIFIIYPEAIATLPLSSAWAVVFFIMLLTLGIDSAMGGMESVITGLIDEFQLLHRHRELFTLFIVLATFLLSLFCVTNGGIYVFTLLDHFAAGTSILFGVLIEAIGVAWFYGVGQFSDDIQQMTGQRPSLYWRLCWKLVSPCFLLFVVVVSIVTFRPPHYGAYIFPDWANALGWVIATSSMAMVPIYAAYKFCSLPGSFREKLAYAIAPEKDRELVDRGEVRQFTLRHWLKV
Chain of Norepinephrine transporter (Q9WTR4 whole entry): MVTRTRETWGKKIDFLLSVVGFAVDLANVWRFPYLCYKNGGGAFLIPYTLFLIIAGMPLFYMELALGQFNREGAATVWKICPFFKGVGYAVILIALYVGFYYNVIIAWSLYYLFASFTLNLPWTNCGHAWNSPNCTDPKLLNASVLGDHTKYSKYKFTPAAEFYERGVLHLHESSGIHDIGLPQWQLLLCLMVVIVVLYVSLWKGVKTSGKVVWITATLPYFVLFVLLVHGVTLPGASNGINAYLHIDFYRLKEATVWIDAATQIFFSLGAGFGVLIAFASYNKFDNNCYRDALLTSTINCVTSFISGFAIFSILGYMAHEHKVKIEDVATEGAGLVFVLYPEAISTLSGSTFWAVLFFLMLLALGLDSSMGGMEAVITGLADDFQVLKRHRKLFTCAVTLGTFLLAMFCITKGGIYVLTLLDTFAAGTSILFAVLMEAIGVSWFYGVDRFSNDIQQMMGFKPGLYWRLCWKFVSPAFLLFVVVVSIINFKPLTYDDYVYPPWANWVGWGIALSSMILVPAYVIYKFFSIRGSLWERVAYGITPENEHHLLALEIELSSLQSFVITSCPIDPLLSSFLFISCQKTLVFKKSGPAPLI

Compound	Ki [1]	Ki [2]	Kd [3]	IC50 (Glutamate NMDA receptor [4])	Kd [5]	Kd (Rattus norvegicus)	IC50 (Glutamate NMDA receptor [6])	Kd [7]
Cc1cc(C)c([C@H](O)[C@@H](CN(C)C)c2ccccc2)c(C)c1 (racemic)	8.5 µM	4.88 µM	42 µM	> 200 µM	35.8 µM	–	–	–
CN(C)C[C@@H](c1ccc2ccccc2c1)[C@@H](O)C(C)(C)C (racemic)	0.01 µM	0.06 µM	0.34 µM	21 µM	0.0299 µM	–	–	–
CCOc1ccccc1OCC1CNCCO1 (racemic) [VILOXAZINE]	0.17 µM	48 µM	0.155 µM	–	0.155 µM	–	–	–
COc1ccc([C@H](CN(C)C)[C@@H](O)C2CCCCC2)cc1 (racemic)	0.22 µM	0.64 µM	3.5 µM	> 200 µM	1.8 µM	–	–	–
CC(C)(C)[C@H](O)[C@@H](CN)c1ccc2ccccc2c1 (racemic)	–	0.12 µM	27 µM	3 µM	0.055 µM	0.278 µM	–	–
CN(C)C[C@@H](c1ccccc1)[C@@H](O)C(C)(C)C (racemic)	0.83 µM	1.2 µM	21.4 µM	121 µM	3.43 µM	–	–	–
NC[C@@H](c1ccc2ccccc2c1)[C@@H](O)c1ccccc1 (racemic)	–	–	0.14 µM	65 µM	–	–	–	–
COc1ccc([C@H](CN)[C@@H](O)C2CCCCC2)cc1 (racemic)	0.33 µM	1.46 µM	4.31 µM	84 µM	1.54 µM	–	–	–
CN(C)C[C@@H](c1ccccc1)[C@@H](O)c1ccccc1 (racemic)	0.99 µM	1.55 µM	–	–	2.25 µM	–	47 µM	12 µM
Cc1cc(C)c([C@H](O)[C@@H](CN)c2ccccc2)c(C)c1 (racemic)	8.6 µM	5.31 µM	0.34 µM	63 µM	22.5 µM	–	–	–
NC[C@@H](c1ccccc1)[C@@H](O)c1ccccc1 (racemic)	5.78 µM	6.6 µM	24 µM	5.6 µM	12.5 µM	–	–	–
CC(C)(C)[C@H](O)[C@@H](CN)c1ccccc1 (racemic)	3.8 µM	4.57 µM	7.26 µM	14 µM	47.9 µM	–	–	–
CN(C)C[C@@H](c1ccc2ccccc2c1)[C@@H](O)c1ccccc1 (racemic)	–	–	0.07 µM	143 µM	–	–	–	–
CCc1nn(CCCN2CCN(c3cccc(Cl)c3)CC2)c(=O)n1CCOc1ccccc1 [NEFAZODONE]	–	2.38 µM	–	–	–	–	–	–
